Measurements published in BindingDB's records for doi:10.7270/Q25B013C (The Scripps Research Institute Molecular Screening Center, 2014).

Target: T1, Disintegrin and metalloproteinase domain-containing protein 10 (Homo sapiens, UniProt O14672)
T1 sequence (O14672 whole entry): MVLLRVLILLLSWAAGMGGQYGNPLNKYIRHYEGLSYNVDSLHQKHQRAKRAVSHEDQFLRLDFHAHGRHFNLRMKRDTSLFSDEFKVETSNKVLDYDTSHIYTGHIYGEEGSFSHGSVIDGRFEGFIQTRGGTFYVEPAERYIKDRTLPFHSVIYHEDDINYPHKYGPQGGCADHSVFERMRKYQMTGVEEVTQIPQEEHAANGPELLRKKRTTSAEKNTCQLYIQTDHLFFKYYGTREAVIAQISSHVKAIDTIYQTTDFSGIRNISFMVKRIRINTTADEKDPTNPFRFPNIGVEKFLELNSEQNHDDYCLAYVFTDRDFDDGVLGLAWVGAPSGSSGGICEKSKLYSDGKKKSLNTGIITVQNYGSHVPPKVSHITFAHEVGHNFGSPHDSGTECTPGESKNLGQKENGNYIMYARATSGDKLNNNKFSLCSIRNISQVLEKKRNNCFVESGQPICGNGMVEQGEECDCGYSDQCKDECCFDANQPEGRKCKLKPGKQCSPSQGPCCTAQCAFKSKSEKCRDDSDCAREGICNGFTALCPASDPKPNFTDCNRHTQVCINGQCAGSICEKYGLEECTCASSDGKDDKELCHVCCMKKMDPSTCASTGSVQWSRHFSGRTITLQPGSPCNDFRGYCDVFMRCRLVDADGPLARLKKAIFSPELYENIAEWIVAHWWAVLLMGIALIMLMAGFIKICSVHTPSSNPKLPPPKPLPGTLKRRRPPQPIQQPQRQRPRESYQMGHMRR
Assay: ADAM10 protease inhibitors, dose response, selectivity assay for ADAM17 exosite inhibitor project, biochemical, FRET peptide substrate, recombinant human ADAM10 (AID 743259)

SMILES	IC50 [µM]
CC(=NNC(=N)Sc1cc(O)n(-c2ccc(Br)cc2)c1O)c1cccs1 [[1-(4-bromophenyl)-2,5-bis(oxidanylidene)pyrrolidin-3-yl] N''-(1-thiophen-2-ylethylideneamino)carbamimidothioate]	32.5
CC1CCCN(CCCNC(=O)c2coc3nc4ccccc4nc23)C1 (configuration not stated) [MLS000046706]	28.5
COc1cccc(C2c3oc(CO)cc(=O)c3OC(=N)C2C#N)c1 (configuration not stated) [2-Amino-6-hydroxymethyl-4-(3-methoxy-phenyl)-8-oxo-4,8-dihydro-pyrano[3,2-b]pyran-3-carbonitrile]	69.5
CCOc1ccc(NC(=O)Cc2sc(=O)n(-c3ccccc3)c2O)cc1	37.7
O=C1OCCN1C(=O)C1=[N+](c2ccc(Br)cc2)N[C-](c2ccccc2)[C@H]1c1ccc([N+](=O)[O-])cc1 [SMR000327268]	69.5
COc1ccc(NC(=O)c2oc3ccccc3c2NC(=O)C(C)(C)C)cc1 [3-(2,2-dimethylpropanoylamino)-N-(4-methoxyphenyl)-1-benzofuran-2-carboxamide]	69.5
CC(=NNC(=N)Sc1cc(O)n(-c2ccccc2)c1O)c1cccs1 [[2,5-bis(oxidanylidene)-1-phenyl-pyrrolidin-3-yl] N'-[(E)-1-thiophen-2-ylethylideneamino]carbamimidothioate]	9.95
Cc1cccc(NNC2=c3cc(Br)ccc3=NC2=O)c1 [5-bromo-3-[2-(3-methylphenyl)hydrazinyl]indol-2-one]	69.5
Cn1c(-c2sccc2OCc2ccc(Cl)cc2Cl)n[nH]c1=S	11.1
O=C(Cc1sc(=O)n(-c2ccccc2)c1O)Nc1ccccc1 [2-(2,4-diketo-3-phenyl-thiazolidin-5-yl)-N-phenyl-acetamide]	47.8
CCOc1cc(C(c2c(C)[nH][nH]c2=O)c2c(C)[nH][nH]c2=O)ccc1O [4-[(3-ethoxy-4-hydroxyphenyl)-(3-methyl-5-oxo-1,2-dihydropyrazol-4-yl)methyl]-5-methyl-1,2-dihydropyrazol-3-one]	2.58
COC(=O)c1cccc(Cn2c(Cl)c(CN=Nc3ccccc3C)sc2=O)c1 [methyl 3-[[4-chloro-5-[[(2-methylphenyl)hydrazinylidene]methyl]-2-oxo-1,3-thiazol-3-yl]methyl]benzoate]	69.5
